Laboratory results reported in publication PMC7000521, “Hazard Characterization of Synthetic Cathinones Using Viability, Monoamine Reuptake, and Neuronal Activity Assays” (Frontiers in Neuroscience, 2020).
pIC50: −log10 of the molar value. Read-outs that look alike come from different tables or passages of the source.

Columns and labels:
[1] = Brain partitioning factor (BPF); details: brain concentration divided by blood/serum/plasma concentration from human post mortem reports or animal studies (rat/mice)
From the text: To correlate reported effect concentrations to expected concentrations in the human brain during recreational use a brain partitioning factor (BPF; […]) was applied, as actual human brain concentrations following recreational drug use are unknown. Expected concentrations in the human brain were estimated by multiplying recreational human blood/serum/plasma concentrations with the BPF. Human recreational blood, serum, or plasma levels were obtained from literature (driving under the influence or accidental non-fatal intoxications). The BPF was determined for each drug by dividing the brain concentration by the blood/serum/plasma concentration found in human post mortem reports, or animal studies (rat/mice) when human data were insufficient.

[2] = recreational use (driving under the influence or accidental non-fatal intoxications); ref literature; cited from earlier work
[3] = tested on: rat primary cortical cultures; assay: MEA recordings of spontaneous neuronal network activity; type: cell-based; details: for pIC50: Rattus norvegicus, value [CI]; for Increased potency to inhibit neuronal activity (MSR, MBR, and MNBR) compared to cathinones lacking the lengthened alkyl chain: acute and prolonged exposure
Procedure: Rat pups born of timed-pregnant Wistar rats (Envigo, Horst, Netherlands) were sacrificed on postnatal day 0–1 to prepare cortical cultures grown on MEA plates as described previously ([Zwartsen et al., 2018], [2019]). Briefly, a 50 μL drop of cell suspension was added to each well (1 × 10^5 cells/well) of a 48-well MEA plate (Axion BioSystems Inc., Atlanta, GA, United States, M768-GL1-30Pt200) coated with 0.1% polyethyleneimine (PEI). After 2 h, 450 μL dissection medium was added to each well. The day after the isolation (day in vitro 1; DIV1), 450 μL/well dissection medium was replaced with 450 μL/well glutamate medium. At DIV4, 450 μL/well glutamate medium was replaced with 450 μL/well FBS medium (for medium supplements see [Zwartsen et al., 2018], [2019]). Cultures were kept in FBS medium at 37°C, 5% CO2/95% air atmosphere until use at DIV9-10.
Microelectrode array recordings were performed as described in [Zwartsen et al. (2019)]. In short, neuronal activity was measured using a Maestro 768-channel amplifier (Axion BioSystems Inc., Atlanta, GA, United States). Baseline spontaneous neuronal activity was recorded for 30 min at 37°C, after which wells were exposed to selected synthetic cathinones under sterile conditions. Next, neuronal activity was determined during a 30 min “acute exposure” recording. […] Next, exposure medium was replaced with fresh FBS medium and the plate was incubated for 19 h at 37°C, until the 30 min “washout” recording, i.e., 24 h after the start of the exposure.
Effects of 3-MMC, 4-MMC, 4-MEC, pentedrone, 3-MMCinternet, and 4-MECinternet were tested at 1–1000 μM (final concentration). At the day of exposure, stocks and dilutions were freshly made in NB-A FBS medium (for medium supplements see [Zwartsen et al., 2019]). Data on methylone, α-PVP, and MDPV exposure have been published previously in [Zwartsen et al. (2019)]. For each experimental condition, primary cultures from two to three different isolations were used and tested in four to five plates (Nplates). The number of wells (nwells) represents the number of replicates per condition.
Microelectrode array data were analyzed as described in [Zwartsen et al. (2019)]. In short, parameters of interest after acute exposure were expressed as a percentage of the parameters prior to exposure to obtain a treatment ratio for each well (paired comparison; parameterexposure/parameterbaseline as % of control wells). The parameters after prolonged exposure and washout were also expressed as a percentage of the baseline parameters. Next, treatment ratios were grouped per parameter, condition, drug [e.g., mean spike rate (MSR) 10 μM 3-MMC] and exposure scenario (acute, prolonged, or washout).
Outliers (>mean ± 2×SD) for MSR (5.0%) were used to exclude wells on all parameters. Outliers for mean burst rate (MBR; 2.6%) and mean network burst rate (MNBR; 1.4%) were used to exclude wells on specific parameters (burst, network burst, and synchronicity parameters, or network burst and synchronicity parameters, respectively). Finally, the acute, prolonged, and washout control treatment ratios were set to 100% and treatment ratios of exposed wells were normalized to the average treatment ratio of medium control wells of the corresponding parameter and exposure scenario. Treatment ratios of exposed wells were averaged per parameter (e.g., MSR), condition (e.g., 100 μM), drug (e.g., methylone), and exposure scenario (e.g., acute exposure) and used for further statistical analyses [see [Zwartsen et al. (2019)] for more details on criteria, parameters, and exposure scenarios]. Neuronal activity (as % of control) is expressed as mean ± SEM of nwells from Nplates. As the spike, burst, and network burst rates were among the most sensitive parameters, these parameters are presented in the manuscript. Additional parameters are presented in Supplementary Figure 2.
Concentration–response curves were made for transporter, MEA, and cell viability assays. […]

[4] = 0.5 h, acute exposure 30 min, read-out: Neuronal activity IC50, mean burst rate (MBR), acute
[5] = 0.5 h, acute exposure 30 min, read-out: Neuronal activity IC50, mean network burst rate (MNBR), acute
[6] = 0.5 h, acute exposure 30 min, read-out: Neuronal activity IC50, mean spike rate (MSR), acute
[7] = 19 h washout, 24 h after start of exposure, read-out: Neuronal activity IC50, mean burst rate (MBR), recovery
[8] = 19 h washout, 24 h after start of exposure, read-out: Neuronal activity IC50, mean network burst rate (MNBR), recovery
[9] = 19 h washout, 24 h after start of exposure, read-out: Neuronal activity IC50, mean spike rate (MSR), recovery
[10] = prolonged exposure 4.5 h, read-out: Neuronal activity IC50, mean burst rate (MBR), prolonged
[11] = prolonged exposure 4.5 h, read-out: Neuronal activity IC50, mean network burst rate (MNBR), prolonged
[12] = prolonged exposure 4.5 h, read-out: Neuronal activity IC50, mean spike rate (MSR), prolonged

## CCNC(C)C(=O)c1ccc(C)cc1 (centres unmarked) [4-MEC, 2-(ethylamino)-1-(4-methylphenyl) propan-1-one]
[1]
  Brain partitioning factor (BPF): 1.5–6.2^4
[2]
  Human (serum/blood/plasma) concentration: 0.1–4.7^a^,d μM
[3]; [4]
  pIC50: 4.13
[3]; [5]
  pIC50: 4.17
[3]; [6]
  pIC50: 4.14
[3]; [7]
  pIC50: < 3.00
[3]; [8]
  pIC50: < 3.00
[3]; [9]
  pIC50: < 3.00

## CNC(C)C(=O)c1cccc(C)c1 (centres unmarked) [3-MMC, 2-(methylamino)-1-(3-methylphenyl) propan-1-one]
[2]
  Human (serum/blood/plasma) concentration: 0.005–9.0^A,b,^c μM
[3]; [4]
  pIC50: 4.10
[3]; [5]
  pIC50: 4.17
[3]; [6]
  pIC50: 4.19
[3]; [7]
  pIC50: < 3.00
[3]; [8]
  pIC50: < 3.00

## CCCC(C(=O)c1ccc2c(c1)OCO2)N1CCCC1 (centres unmarked) [MDPV, 1-(1,3-benzodioxol-5-yl)-2-pyrro lidin-1-ylpentan-1-one]
[1]
  Brain partitioning factor (BPF): 0.8–4.4^4,11,12
[2]
  Human (serum/blood/plasma) concentration: 0.02–6.9^d,L,M,n μM
[3]
  Increased potency to inhibit neuronal activity (MSR, MBR, and MNBR) compared to cathinones lacking the lengthened alkyl chain: two to fourfold

## CCCC(NC)C(=O)c1ccccc1 (centres unmarked) [Pentedrone, 2-(methylamino)-1-phenyl pentan-1-one]
[1]
  Brain partitioning factor (BPF): 1.6^8
[2]
  Human (serum/blood/plasma) concentration: 0.04–1.9^a^,d,I μM
[3]; [4]
  pIC50: 4.59
[3]; [5]
  pIC50: 4.64
[3]; [6]
  pIC50: 4.64
[3]; [10]
  pIC50: 4.55
[3]; [11]
  pIC50: 4.55
[3]; [12]
  pIC50: 4.57
[3]
  Increased potency to inhibit neuronal activity (MSR, MBR, and MNBR) compared to cathinones lacking the lengthened alkyl chain: two to fourfold
[3]; highest concentration (1000 μM), washout 24 h after start of exposure
  Neuronal activity following washout: remained fully inhibited

## CNC(C)C(=O)c1ccc(C)cc1 (centres unmarked) [4-MMC, 2-(methylamino)-1-(4-methylphenyl) propan-1-one]
[1]
  Brain partitioning factor (BPF): 0.7–6.2^1,^–2,^3
[2]
  Human (serum/blood/plasma) concentration: 0.05–6.0^a^,d,E,f μM
[3]; [4]
  pIC50: 3.93
[3]; [5]
  pIC50: 3.92
[3]; [6]
  pIC50: 4.00
[3]; [7]
  pIC50: < 3.00
[3]; [8]
  pIC50: < 3.00
[3]; [9]
  pIC50: < 3.00
[3]; [10]
  pIC50: 3.83
[3]; [11]
  pIC50: 3.78
[3]; [12]
  pIC50: 3.94
